ChEMBL document CHEMBL5365514, “Redefining Cancer Therapy: Toward BCL-XL/BCL-2 Dual Inhibitors with Diminished Platelet Toxicity” (ACS Med Chem Lett, 2023)

Columns and labels:
MOLT-4 = assay: Antiproliferative activity against human MOLT-4 cells assessed as inhibition of cell growth measured after 48 hrs by MTS assay; assay type: functional, cell-based; details: MOLT-4, 48 h
RS4-11 = assay: Antiproliferative activity against human RS4-11 cells assessed as inhibition of cell growth measured after 48 hrs by MTS assay; assay type: functional, cell-based; details: RS4-11, 48 h

SMILES	IC50 (MOLT-4) [nM]	IC50 (RS4-11) [nM]
Cc1ncsc1-c1ccc([C@H](C)NC(=O)[C@@H]2C[C@@H](O)CN2C(=O)[C@@H](NC(=O)CN(C)CC(=O)N2CCC(C3CCN(C[C@]4(C)CCC(c5ccc(Cl)cc5)=C(CN5CCN(c6ccc(C(=O)NS(=O)(=O)c7ccc(N[C@H](CCN8CCCOCC8)CSc8ccccc8)c(S(=O)(=O)C(F)(F)F)c7)cc6)CC5)C4)CC3)CC2)C(C)(C)C)cc1	< 20	< 20
Cc1ncsc1-c1ccc([C@H](C)NC(=O)[C@@H]2C[C@@H](O)CN2C(=O)[C@@H](NC(=O)CCCCC(=O)N2CCN(C3CCN(C[C@]4(C)CCC(c5ccc(Cl)cc5)=C(CN5CCN(c6ccc(C(=O)NS(=O)(=O)c7ccc(N[C@H](CCN8CCCOCC8)CSc8ccccc8)c(S(=O)(=O)C(F)(F)F)c7)cc6)CC5)C4)CC3)CC2)C(C)(C)C)cc1	< 20	< 20
Cc1ncsc1-c1ccc([C@H](C)NC(=O)[C@@H]2C[C@@H](O)CN2C(=O)[C@@H](NC(=O)CN(C)CCC(=O)N2CCC(C3CCN(C[C@]4(C)CCC(c5ccc(Cl)cc5)=C(CN5CCN(c6ccc(C(=O)NS(=O)(=O)c7ccc(N[C@H](CCN8CCCOCC8)CSc8ccccc8)c(S(=O)(=O)C(F)(F)F)c7)cc6)CC5)C4)CC3)CC2)C(C)(C)C)cc1	< 20	< 20
